11 compounds from ChEMBL document CHEMBL1201862, “PubChem BioAssay data set” (2004) can be followed below.

Test systems include MCF7; SN12C; MOLT-4; HCC 2998; OVCAR-3; HCT-15; COLO 205; HL-60; MDA-MB-435; BT-549; OVCAR-8; PC-3; RPMI-8226; TK-10; SNB-19; OVCAR-4; EKVX; SF-295; NCI-H226; A498.
Holding throughout (experiment): growth of human tumour cells (NCI), 48 h

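1) Cells in 96-well plates. 2) Compound, 48 h, 5 concentrations. 3) Linear interpolation between surrounding doses. 4) Unreached endpoint = highest concentration. Abbreviation: GI50, concentration required for 50% inhibition of growth.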 The source made the active and inactive calls. No stated cut-off is given here; in the data, active = GI50 up to about 1.1 µM and inactive = higher. Where only a bound is given, the exact number is not on record here.

In the case of `Cc1cccc2c1Oc1cc(Cl)ccc1C2NC(=O)CCN1CCCCC1` (stereo unspecified), the GI50 is 17.5 µM (inactive) with MCF7; 17.3 µM (inactive) with SN12C; 16.1 µM (inactive) in the test on MOLT-4; 15 µM (inactive) in the test with HCC 2998; > 10 µM (inactive) with OVCAR-3; 17.7 µM with HCT-15. The GI50 with COLO 205 is 15 µM (inactive); with HL-60 it was 15.7 µM (inactive); in the test with MDA-MB-435, 16 µM (inactive); in the test with BT-549, 18.7 µM (inactive); in the test on OVCAR-8, 16.3 µM (inactive); in the test on PC-3 it was 14.6 µM (inactive). The GI50 was 25 µM (inactive) with RPMI-8226; 15.8 µM (inactive) with TK-10; 17.5 µM (inactive) with SNB-19; 15.3 µM (inactive) in the test with OVCAR-4; 20.7 µM (inactive) with EKVX; 18.8 µM (inactive) in the test with SF-295.

As to `CCOC(=O)C(=O)CC(=O)C1=C(c2ccccc2OC)CC(c2cccs2)=CC1=O`, the GI50 in the test with NCI-H226 is > 100 µM (inactive); in the test on SN12C, > 100 µM (inactive); in the test on MOLT-4, 37.1 µM (inactive); in the test with OVCAR-3 it was 41.9 µM (inactive); with HCT-15, 82.4 µM; in the test with A498, > 100 µM (inactive). The GI50 in the test on COLO 205 is 39.7 µM (inactive); in the test on HL-60 it was 55 µM (inactive); with MDA-MB-435, 35.9 µM (inactive); in the test on BT-549, > 100 µM (inactive); with OVCAR-8, > 100 µM (inactive); with PC-3, 24 µM (inactive). The GI50 with RPMI-8226 was 65.8 µM (inactive); with TK-10, > 100 µM (inactive); with SNB-19, > 100 µM (inactive); in the test with EKVX it was > 100 µM (inactive); with SF-295 it was 18.7 µM (inactive).

For `S=C1CC(c2ccccc2)Sc2ccc(Cl)cc2N1` (stereo unspecified), the GI50 is > 100 µM (inactive) in the test on NCI-H226; 36.2 µM (inactive) with MCF7; 94 µM (inactive) in the test on SN12C; 18.7 µM (inactive) in the test with MOLT-4; 46.5 µM (inactive) in the test with OVCAR-3; 32.7 µM with HCT-15. In addition, the GI50 in the test with COLO 205 was 63.7 µM (inactive); with HL-60, 24.4 µM (inactive); in the test on MDA-MB-435, 13.4 µM (inactive); in the test on BT-549 it was 19.9 µM (inactive); in the test on OVCAR-8, 43.4 µM (inactive); in the test with PC-3, 4.56 µM (inactive). In addition, the GI50 in the test with RPMI-8226 was 90.4 µM (inactive); with TK-10, 36.8 µM (inactive); in the test with SNB-19, 34 µM (inactive); in the test on OVCAR-4 it was 54.5 µM (inactive); in the test with EKVX, 50.7 µM (inactive); with SF-295, 26.9 µM (inactive).

Take `Clc1ccc(Cc2nc3cc(Cl)ccc3o2)cc1`: the GI50 in the test with NCI-H226 is 29.1 µM (inactive); in the test on MCF7, 38.5 µM (inactive); with SN12C it was 40.1 µM (inactive); in the test with MOLT-4, 26.5 µM (inactive); in the test on HCC 2998, 21.6 µM (inactive); in the test on OVCAR-3, 22.4 µM (inactive). In addition, the GI50 in the test with HCT-15 is 29.5 µM; in the test on COLO 205 it was 29.8 µM (inactive); in the test on HL-60, 30.4 µM (inactive); with MDA-MB-435 it was 28.7 µM (inactive); with BT-549, 27.9 µM (inactive); in the test on OVCAR-8, 32.3 µM (inactive). Besides, the GI50 in the test with PC-3 was 32.4 µM (inactive); in the test with RPMI-8226 it was 30.9 µM (inactive); with TK-10 it was 52 µM (inactive); with SNB-19, 39.6 µM (inactive); with OVCAR-4 it was 24.4 µM (inactive); in the test with EKVX, 24.8 µM (inactive). The GI50 in the test on SF-295 was 22.8 µM (inactive).

With `C=C1CC(COc2ccc3ccc(=O)oc3c2)(c2ccccc2)OC1=O` (stereo unspecified), the GI50 in the test with NCI-H226 was 5.3 µM (inactive); in the test with MCF7 it was 1.26 µM (inactive); in the test with SN12C, 2.73 µM (inactive); in the test with MOLT-4, 1.25 µM (inactive); in the test with HCC 2998, 1.27 µM (inactive); in the test with OVCAR-3 it was 1.61 µM (inactive). Further, the GI50 in the test on HCT-15 was 1.87 µM; in the test with COLO 205, 0.625 µM (active); in the test on HL-60, 0.0803 µM (active); with MDA-MB-435 it was 2.61 µM (inactive); in the test on BT-549 it was 1.54 µM (inactive); in the test on OVCAR-8, 2.21 µM (inactive). Besides, the GI50 is 2.69 µM (inactive) in the test on PC-3; 0.143 µM (active) in the test on RPMI-8226; 1.54 µM (inactive) with TK-10; 15 µM (inactive) in the test on SNB-19; 1.49 µM (inactive) with OVCAR-4; 7.5 µM (inactive) in the test on EKVX. Further, the GI50 in the test with SF-295 is 6.78 µM (inactive).

Take `CSc1nncc(-c2cc3c(c(SC)n2)CCC3)n1`: the GI50 with NCI-H226 was > 100 µM (inactive); in the test with SN12C, > 100 µM (inactive); in the test on OVCAR-3, > 100 µM (inactive); in the test on HCT-15, over 100 µM; in the test with COLO 205, > 100 µM (inactive); in the test with HL-60, > 100 µM (inactive). The GI50 was > 100 µM (inactive) with MDA-MB-435; > 100 µM (inactive) with BT-549; 24.4 µM (inactive) with OVCAR-8; > 100 µM (inactive) in the test on PC-3; > 100 µM (inactive) in the test with RPMI-8226; > 100 µM (inactive) in the test on TK-10. In addition, the GI50 with SNB-19 was > 100 µM (inactive); with OVCAR-4, 48.1 µM (inactive); in the test on EKVX, > 100 µM (inactive); in the test with SF-295, > 100 µM (inactive).

For the compound `CN1CCC2(CC1)C(=O)N(NC(N)=O)C(=O)C2c1ccccc1` (stereo unspecified), the GI50 is > 100 µM (inactive) with NCI-H226; > 10 µM (inactive) with MCF7; > 100 µM (inactive) in the test with SN12C; > 100 µM (inactive) in the test with MOLT-4; > 100 µM (inactive) in the test with HCC 2998; > 100 µM (inactive) in the test on OVCAR-3. In addition, the GI50 in the test with HCT-15 is over 100 µM; with COLO 205, > 100 µM (inactive); in the test with HL-60, > 100 µM (inactive); in the test on MDA-MB-435 it was > 100 µM (inactive); in the test with BT-549 it was > 100 µM (inactive); with OVCAR-8, > 100 µM (inactive). For the same compound, the GI50 in the test with PC-3, with RPMI-8226, in the test on TK-10, in the test on SNB-19, in the test with OVCAR-4 and with EKVX was > 100 µM (inactive) throughout. Further, the GI50 in the test with SF-295 is > 100 µM (inactive).

As to `CCOC(=O)N/N=C(\CC)OCC`, the GI50 in the test on MCF7 was > 100 µM (inactive); in the test on SN12C it was > 100 µM (inactive); in the test with MOLT-4 it was > 100 µM (inactive); in the test on HCC 2998 it was > 100 µM (inactive); in the test with OVCAR-3, > 100 µM (inactive); in the test with HCT-15, over 100 µM. Moreover, the GI50 in the test on COLO 205, in the test on HL-60, in the test on BT-549, in the test on OVCAR-8, in the test on PC-3 and in the test on TK-10 was > 100 µM (inactive) throughout. In addition, the GI50 in the test with SNB-19, with EKVX and in the test with SF-295 was > 100 µM (inactive) in each case.

For the compound `O=[N+]([O-])c1ccc(N2N=C(c3ccc4ccccc4c3O)CC2c2ccc(Cl)cc2Cl)c([N+](=O)[O-])c1` (stereo unspecified), the GI50 was 49.1 µM (inactive) in the test with NCI-H226; 40.9 µM (inactive) in the test on MCF7; 71 µM (inactive) with SN12C; 14.9 µM (inactive) in the test with MOLT-4; 30.3 µM (inactive) in the test on HCC 2998; 33.7 µM (inactive) in the test with OVCAR-3. In addition, the GI50 with HCT-15 was 27.2 µM; with COLO 205, 44.7 µM (inactive); in the test with HL-60, 7.59 µM (inactive); in the test on MDA-MB-435, 29.5 µM (inactive); with BT-549, 49.1 µM (inactive); with OVCAR-8, 33.3 µM (inactive). In addition, the GI50 is 35.1 µM (inactive) with PC-3; 18.8 µM (inactive) with RPMI-8226; 63 µM (inactive) with TK-10; 29.3 µM (inactive) in the test with SNB-19; 41.7 µM (inactive) with OVCAR-4; 37.3 µM (inactive) with EKVX. Besides, in the test on SF-295, the GI50 was 24.3 µM (inactive).

On to `O=C1OC(=O)c2cc(S(=O)(=O)c3ccc4c(c3)C(=O)OC4=O)ccc21`, for which the GI50 in the test on NCI-H226 is > 100 µM (inactive); in the test with MCF7, > 100 µM (inactive); in the test with SN12C, > 100 µM (inactive); with HCC 2998 it was > 100 µM (inactive); with OVCAR-3 it was > 100 µM (inactive); in the test with HCT-15, over 100 µM. Besides, the GI50 in the test on COLO 205, with MDA-MB-435, with BT-549, in the test on OVCAR-8, with PC-3 and with RPMI-8226 was > 100 µM (inactive) throughout. The GI50 in the test on TK-10, in the test with SNB-19, with OVCAR-4, in the test on EKVX and with SF-295 was > 100 µM (inactive) each time.

Consider `CCCC(=O)NC(Nc1ccc(S(=O)(=O)Nc2cc(C)on2)cc1)(C(=O)OCC)C(F)(F)F` (stereo unspecified), for which the GI50 in the test on NCI-H226 is > 100 µM (inactive); with MCF7 it was > 100 µM (inactive); in the test with SN12C, > 100 µM (inactive); in the test on MOLT-4, 55.3 µM (inactive); in the test with HCC 2998 it was > 100 µM (inactive); in the test on OVCAR-3 it was > 100 µM (inactive). The GI50 is over 100 µM in the test with HCT-15; > 100 µM (inactive) with COLO 205; > 100 µM (inactive) with HL-60; > 100 µM (inactive) with MDA-MB-435; > 100 µM (inactive) with BT-549; > 100 µM (inactive) in the test on OVCAR-8. Also, the GI50 in the test with PC-3, with RPMI-8226, in the test on TK-10, in the test with SNB-19, in the test with OVCAR-4 and with EKVX was > 100 µM (inactive) in each case. For the same compound, the GI50 with SF-295 is > 100 µM (inactive).
